Test [1] can be described thus: Cytotoxicity against human QSG7701 cells after 48 hrs by MTT assay. Type of test: cell-based. The following applies: QSG7701, 48 h. (In general: Tetrazolium assays rely on reduction of a dye to a coloured formazan, in cell work by metabolically active cells.)
Test [2] concerns HCT-116. In words: Cell cycle arrest in human HCT116 cells assessed as accumulation at G1 phase after 48 hrs using propidium iodide by flow cytometry. Type of test: functional, cell-based.
The subject of test [3] is HCT-116. The experiment in a line: Induction of apoptosis in human HCT116 cells assessed as increase in late apoptotic cells after 48 hrs using annexin V/propidium iodide staining by flow cytometry. Type of test: functional, cell-based. (Flow cytometry measures light scatter and fluorescence of single cells or particles in a stream.)
The subject of test [4] is HCT-116. The experiment in a line: Cell cycle arrest in human HCT116 cells assessed as accumulation at G2 phase at 0.5 uM after 48 hrs using propidium iodide by flow cytometry (reference value: 16.77%). Type of test: functional.
Test [5] relates to HCT-116. The experiment in a line: Cell cycle arrest in human HCT116 cells assessed as accumulation at S phase at 0.5 uM after 48 hrs using propidium iodide by flow cytometry (reference value: 46.43%). Format: functional.
Test [6] relates to HCT-116. The experiment in a line: Cell cycle arrest in human HCT116 cells assessed as accumulation at G1 phase at 2 uM after 48 hrs using propidium iodide by flow cytometry (reference value: 36.8%). Type of test: functional.
Test [7] relates to HCT-116. The experiment in a line: Cell cycle arrest in human HCT116 cells assessed as accumulation at G2 phase at 2 uM after 48 hrs using propidium iodide by flow cytometry (reference value: 16.77%). Format: functional.
For test [8], the system named is HCT-116. In words: Cell cycle arrest in human HCT116 cells assessed as accumulation at S phase at 2 uM after 48 hrs using propidium iodide by flow cytometry (reference value: 46.43%). Format: functional.
Test [9] relates to HCT-116. In words: Cell cycle arrest in human HCT116 cells assessed as accumulation at G1 phase at 8 uM after 48 hrs using propidium iodide by flow cytometry (reference value: 36.8%). Type of test: functional.
Test [10] concerns HCT-116. In words: Cell cycle arrest in human HCT116 cells assessed as accumulation at G2 phase at 8 uM after 48 hrs using propidium iodide by flow cytometry (reference value: 16.77%). Format: functional.
Test [11] has as its system HCT-116. In words: Cell cycle arrest in human HCT116 cells assessed as accumulation at S phase at 8 uM after 48 hrs using propidium iodide by flow cytometry (reference value: 46.43%). Type of test: functional.
Test [12] deals with HCT-116. The experiment in a line: Induction of apoptosis in human HCT116 cells at 0.5 uM after 48 hrs using annexin V/propidium iodide staining by flow cytometry (reference value: 4.17%). Format: functional.
Test [13] deals with HCT-116. In words: Induction of apoptosis in human HCT116 cells at 2 uM after 48 hrs using annexin V/propidium iodide staining by flow cytometry (reference value: 4.17%). Type of test: functional.
Another test relates to PC-3. The experiment in a line: Cytotoxicity against human PC3 cells after 48 hrs by MTT assay. Type of test: functional, cell-based. The following applies: PC-3, 48 h.
The test system of test [14] is HCT-116. In words: Induction of apoptosis in human HCT116 cells at 8 uM after 48 hrs using annexin V/propidium iodide staining by flow cytometry (reference value: 4.17%). Format: functional.
Test [15] addresses T1, Vascular endothelial growth factor receptor 2 (Homo sapiens, UniProt P35968). In words: Inhibition of VEGF-induced VEGFR2 phosphorylation in human HCT116 cells at 0.2 to 20 uM treated 30 mins before VEGF challenge measured after 2 hrs by immuno blot analysis. As to conditions: HCT-116. Type of test: cell-based.
Test [16] concerns the target T1, Vascular endothelial growth factor receptor 2. In words: Inhibition of human VEGFR2 preincubated for 10 mins before ATP addition measured after 45 mins.
Test [17] relates to HCT-116. The experiment in a line: Cell cycle arrest in human HCT116 cells assessed as accumulation at G1 phase at 0.5 uM after 48 hrs using propidium iodide by flow cytometry (reference value: 36.8%). Format: functional.
For test [18], the system named is HCT-116. The experiment in a line: cells. As to conditions: Homo sapiens, HCT-116, 48 h.
Description: Cytotoxicity against human HCT116 cells after 48 hrs by MTT assay
A further test concerns A549. The experiment in a line: cells. The following applies: Homo sapiens, A549, 48 h.
A further test concerns HepG2. In words: cells. The following applies: Homo sapiens, HepG2, 48 h.
Another test has as its system HL-60. In words: cells. As to conditions: Homo sapiens, HL-60, 48 h.
For a further test, the system named is K562. The experiment in a line: cells. As to conditions: Homo sapiens, K562, 48 h.

Activity calls are given as the source filed them. No cut-off for these calls is given here.

T1 sequence (P35968 whole entry): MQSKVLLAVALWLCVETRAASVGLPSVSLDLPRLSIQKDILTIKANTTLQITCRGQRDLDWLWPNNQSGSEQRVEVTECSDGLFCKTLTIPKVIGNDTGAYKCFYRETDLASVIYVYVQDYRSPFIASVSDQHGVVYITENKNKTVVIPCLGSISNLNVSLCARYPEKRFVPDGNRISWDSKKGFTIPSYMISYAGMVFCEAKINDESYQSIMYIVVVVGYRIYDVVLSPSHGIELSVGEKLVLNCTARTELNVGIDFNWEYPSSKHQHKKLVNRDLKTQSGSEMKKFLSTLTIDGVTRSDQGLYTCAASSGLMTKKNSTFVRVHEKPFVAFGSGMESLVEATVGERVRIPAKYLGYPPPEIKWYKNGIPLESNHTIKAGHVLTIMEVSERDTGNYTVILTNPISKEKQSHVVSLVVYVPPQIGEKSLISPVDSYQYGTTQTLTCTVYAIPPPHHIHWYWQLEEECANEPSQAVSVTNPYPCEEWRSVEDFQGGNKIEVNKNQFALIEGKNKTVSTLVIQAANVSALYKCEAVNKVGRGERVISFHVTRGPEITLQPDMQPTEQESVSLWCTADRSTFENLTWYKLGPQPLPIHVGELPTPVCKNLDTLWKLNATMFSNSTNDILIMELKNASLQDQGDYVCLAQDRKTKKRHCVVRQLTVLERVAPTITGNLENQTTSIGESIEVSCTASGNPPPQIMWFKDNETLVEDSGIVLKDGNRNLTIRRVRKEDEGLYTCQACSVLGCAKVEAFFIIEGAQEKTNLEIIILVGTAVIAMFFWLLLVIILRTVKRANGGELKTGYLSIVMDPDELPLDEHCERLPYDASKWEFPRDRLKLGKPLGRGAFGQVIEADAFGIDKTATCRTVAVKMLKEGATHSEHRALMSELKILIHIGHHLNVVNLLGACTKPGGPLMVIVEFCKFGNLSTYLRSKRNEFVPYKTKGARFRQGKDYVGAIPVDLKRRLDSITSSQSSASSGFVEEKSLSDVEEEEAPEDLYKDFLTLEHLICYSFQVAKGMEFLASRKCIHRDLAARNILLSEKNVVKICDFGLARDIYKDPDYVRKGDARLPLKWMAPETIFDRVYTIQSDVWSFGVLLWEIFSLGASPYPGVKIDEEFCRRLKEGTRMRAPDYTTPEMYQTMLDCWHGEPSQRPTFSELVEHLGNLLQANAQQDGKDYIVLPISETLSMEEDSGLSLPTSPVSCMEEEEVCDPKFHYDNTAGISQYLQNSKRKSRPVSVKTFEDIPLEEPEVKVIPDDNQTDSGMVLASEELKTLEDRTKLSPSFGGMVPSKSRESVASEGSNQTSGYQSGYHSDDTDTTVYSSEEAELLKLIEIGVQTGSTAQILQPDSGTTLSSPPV
Description for A549: Cytotoxicity against human A549 cells after 48 hrs by MTT assay
Description for HL-60: Cytotoxicity against human HL60 cells after 48 hrs by MTT assay
Description for HepG2: Cytotoxicity against human HepG2 cells after 48 hrs by MTT assay
Description for K562: Cytotoxicity against human K562 cells after 48 hrs by MTT assay

Consider `CCN(CC)CCNC(=O)c1ccc(/C=C2\C(=O)Nc3ccc(F)cc32)[nH]c1=O.Cl`, for which the IC50 (commonly the concentration needed to halve the response being measured) in test [1] is greater than 50 µM; in the test on PC-3, 21 µM; in [16], 0.015 µM; in the test on HCT-116 [18] it was 2.3 µM; with A549, 6.2 µM; in the test on HepG2, 5 µM. The 50% inhibitory concentration (IC50) with HL-60 stood at 22.7 µM; in the test with K562, 13.8 µM. Also, the Activity result in the test on HCT-116 [2] is “Dose-dependent effect”; with HCT-116 [3] it was “Dose-dependent effect”; in the test with HCT-116 [4] it was 12.11%; in the test with HCT-116 [5] it was 42.45%; in the test on HCT-116 [6], 45.4%; with HCT-116 [7] it was 8.61%. Further, the Activity in the test with HCT-116 [8] was found to be 38.76%; with HCT-116 [9], 81.63%; in the test with HCT-116 [10], 0.1%; with HCT-116 [11], 18.27%; with HCT-116 [12], 20.48%; with HCT-116 [13] it was 28.63%. Also, the Activity amounted to 48.67% with HCT-116 [14] and 42.6% with HCT-116 [17]. The inhibition entry in test [15] was “Active”.

Take `Cc1[nH]c(/C=C2\C(=O)Nc3ccncc32)c(C)c1C(=O)NCCN(C)C`: the IC50 in test [1] was greater than 50 µM; in the test on PC-3, greater than 50 µM; in test [16], 0.06 µM; with HCT-116 [18] it was 9.1 µM; in the test on A549 it was 12.5 µM; in the test with HepG2 it was 8.6 µM. The IC50 in the test with HL-60 was found to be 34.8 µM; in the test with K562, 15.7 µM. In addition, the inhibition entry in test [15] was “Active”.

Take `O=C1Nc2ncccc2/C1=C/c1c[nH]c2cc(F)ccc12`: the IC50 is greater than 50 µM in test [1]; greater than 50 µM in the test with PC-3; 22.3 µM in the test with HCT-116 [18]; 31.1 µM in the test with A549; 15.4 µM with HepG2; 34.1 µM in the test on HL-60. Besides, the IC50 in the test on K562 was greater than 50 µM.

On to `Cc1[nH]c(/C=C2\C(=O)Nc3ncccc32)c(C)c1C(=O)NCCN1CCOCC1`, for which the IC50 in test [1] is greater than 50 µM; in the test with PC-3, greater than 50 µM; in the test with HCT-116 [18] it was 25.5 µM; in the test on A549, 29.2 µM; in the test on HepG2 it was greater than 50 µM; in the test on HL-60 it was 27.8 µM. In the test with K562, the IC50 is greater than 50 µM.

Take `Cc1[nH]c(/C=C2\C(=O)Nc3ncccc32)c(C)c1C(=O)N1CCN(C)CC1`: the half-maximal inhibitory concentration (IC50) in test [1] was greater than 50 µM; in the test on PC-3, greater than 50 µM; with HCT-116 [18] it was 35 µM; in the test on A549 it was 48.2 µM; in the test on HepG2, 37.3 µM; in the test with HL-60, 40 µM. In the test on K562, the half-inhibitory concentration (IC50) was greater than 50 µM.

Regarding `O=C1Nc2cccnc2C1=Cc1c[nH]c2cc(F)ccc12` (mixture of isomers), the IC50 (in [1]; in the test on PC-3; with HCT-116 [18]; in the test with A549; in the test with HepG2; in the test with HL-60) was greater than 50 µM each time. Moreover, the IC50 in the test with K562 is greater than 50 µM.

On to `Cc1[nH]c(/C=C2\C(=O)Nc3ccncc32)c(C)c1C(=O)N1CCN(C)CC1`, for which the IC50 (in [1]; with PC-3; with HCT-116 [18]; in the test with A549; with HepG2; in the test on HL-60) was greater than 50 µM in each case. The compound also gave an IC50 in the test with K562 greater than 50 µM.

On to `CCc1cccc2c(C=C3C(=O)Nc4cccnc43)c[nH]c12` (mixture of isomers), for which the IC50 in test [1] was 44.8 µM; in the test with PC-3, greater than 50 µM; in the test with HCT-116 [18], 22.3 µM; in the test with A549 it was 32.5 µM; in the test on HepG2, greater than 50 µM; with HL-60, 34.2 µM. The compound further had an IC50 in the test on K562 greater than 50 µM.

Regarding `CCc1cccc2c(/C=C3\C(=O)Nc4ncccc43)c[nH]c12`, the IC50 in test [1] was 42.6 µM; with PC-3, greater than 50 µM; with HCT-116 [18] it was 13.6 µM; in the test on A549 it was 17.1 µM; in the test on HepG2 it was 10.5 µM; in the test with HL-60, 37.4 µM. The compound also returned a half-maximal inhibitory concentration (IC50) in the test on K562 of 27.7 µM.

As for `O=C1Nc2cccnc2C1=Cc1c[nH]c2ccc(F)cc12` (mixture of isomers), the IC50 (in test [1]; in the test with PC-3; with HCT-116 [18]; with A549; in the test with HepG2; in the test on HL-60) was greater than 50 µM each time. Further, the IC50 with K562 was greater than 50 µM.

Consider `O=C1Nc2ccc(F)cc2/C1=C/c1ccc(C(=O)NCCN2CCCCC2)c(=O)[nH]1`, for which the IC50 in test [1] is greater than 50 µM; in the test with PC-3 it was 28 µM; in the test on HCT-116 [18], 9.5 µM; in the test with A549 it was 15.2 µM; with HepG2, 18.9 µM; with HL-60, 32.7 µM. Further, the half-inhibitory concentration (IC50) in the test with K562 was determined as 26.8 µM.

For `CCc1cccc2c(/C=C3\C(=O)Nc4ccc(F)cc43)c[nH]c12`, the IC50 in [1] was greater than 50 µM; in the test on PC-3, 26.4 µM; in [16], 6.58 µM; in the test on HCT-116 [18], 8.6 µM; with A549, 11 µM; with HepG2 it was 28.1 µM. Also, the IC50 in the test with HL-60 turned out to be 26.7 µM; with K562, 15.8 µM. Besides, the inhibition entry in test [15] was “Active”.

`O=C1Nc2ncccc2/C1=C/c1c[nH]c2ccc(F)cc12`: the IC50 in test [1] is greater than 50 µM; with PC-3, greater than 50 µM; with HCT-116 [18] it was 17.8 µM; in the test with A549 it was greater than 50 µM; in the test with HepG2 it was greater than 50 µM; in the test on HL-60 it was 48 µM. The midpoint of inhibition with K562, the IC50, lay at 30 µM.

Regarding `CCN(CC)CCNC(=O)c1c(C)[nH]c(/C=C2\C(=O)Nc3ccncc32)c1C`, the 50% inhibitory concentration (IC50) in test [1] is greater than 50 µM; with PC-3 it was greater than 50 µM; in the test on HCT-116 [18], 11 µM; with A549, 13.9 µM; in the test on HepG2 it was 16.4 µM; in the test with HL-60 it was 35 µM. Besides, it took 14.8 µM to reach half-maximal inhibition with K562 (IC50).
